Measurements from patent US6656951B2, “8-aza-bicyclo[3.2.1]octan-3-ol derivatives of 2,3-dihydro-1,4-benzodioxan as 5-HT1A antagonists” (Wyeth, priority 2001, dated 2003).
Structures can show the parent of a compound that is named as a salt. Where two headings read alike, the source gives them in different places.

Assays:
human 5-HT1A receptor = biological target: T1, human 5-HT1A receptor (Homo sapiens, UniProt P08908); assay: HC 5-HT1A affinity (radioligand binding, h5-HT1A.CHO cell membranes)
T1 construct: expressed in transfected cells; membranes
T1 sequence (P08908 1-422): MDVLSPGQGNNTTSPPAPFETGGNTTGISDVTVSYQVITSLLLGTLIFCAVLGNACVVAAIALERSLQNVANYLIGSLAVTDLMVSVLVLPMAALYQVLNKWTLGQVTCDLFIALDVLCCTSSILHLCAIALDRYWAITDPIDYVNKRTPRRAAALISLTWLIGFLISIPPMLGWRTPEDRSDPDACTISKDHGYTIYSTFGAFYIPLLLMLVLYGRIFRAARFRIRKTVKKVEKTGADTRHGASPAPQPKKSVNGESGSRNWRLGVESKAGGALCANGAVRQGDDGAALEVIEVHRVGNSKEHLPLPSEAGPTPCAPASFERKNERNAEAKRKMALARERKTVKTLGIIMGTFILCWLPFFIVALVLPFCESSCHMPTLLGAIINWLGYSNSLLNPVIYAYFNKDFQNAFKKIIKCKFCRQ
Text: The 5-HT1A affinity of compounds of this invention was established in accordance with standard pharmaceutically accepted test procedures with representative compounds as follows:
Cloning of Human 5-HT1A Receptor:
The PCR cloning of the human 5-HT1A receptor subtype from a human genomic library has been described previously (Chanda et al., 1993). A stable Chinese hamster ovary cell line expressing the human 5-HT1A receptor subtype (h5-HT1A.CHO cells) was employed throughout this study. Cells were maintained in DMEM supplemented with 10% fetal calf serum, non-essential amino acids and penicillin/streptomycin.
Cells were grown to 95-100% confluency as a monolayer before membranes were harvested for binding studies. Cells were gently scraped from the culture plates, transferred to centrifuge tubes, and washed twice by centrifugation (2000 rpm for 10 min., 4° C.) in buffer (50 mM Tris; pH 7.5). The resulting pellets were aliquoted and placed at −80° C. On the day of assay, the cells were thawed on ice, and resuspended in buffer. Studies were conducted using [^3H]8-OH-DPAT as the radioligand. The binding assay was performed in 96 well microtiter plates in a final total volume of 250 μL of buffer. Competition experiments were performed by using 7 concentrations of unlabelled drug and a final ligand concentration of 1.5 nM. Non-specific binding was determined in the presence of 10 μM 5-HT. Saturation analysis was conducted by using [^3H]8-OH-DPAT at concentrations ranging from 0.3-30 nM. Following a 30 minute incubation at room temperature, the reaction was terminated by the addition of ice cold buffer and rapid filtration using a M-96 Brandel Cell Harvester (Gaithersburg, Md.) through a GF/B filter presoaked for 30 minutes in 0.5% polyethyleneimine. […]

[1] = biological target: T2, cloned human 5-HT1A receptors (Homo sapiens, UniProt P08908); assay: [35S]-GTPγS binding to assess agonism/antagonism at the 5-HT1A receptor; format: biochemical
T2 construct: expressed in transfected cells; membranes
T2 sequence (P08908 1-422): T1 sequence (P08908 1-422)
Description: Assessment of Agonism/Antagonism at the 5-HT1A Receptor Using [^35S]-GTPγS Binding to Cloned Human 5-HT1A Receptors:
The [^35S]-GTPγS binding assay was similar to that used by Lazareno and Birdsall (Br. J. Pharmacol. 1993, 109, 1120). Briefly, 5-HT1A cloned receptor membrane fragments (as used for 5-HT1A receptor binding assays) were stored at −70° C. until needed. When needed, membranes were rapidly thawed, centrifuged at 40,000×g for 10 minutes and resuspended at 4° C. for 10 minutes in assay buffer (25 mM HEPES, 3 mM MgCl2, 100 mM NaCl, 1 mM EDTA, 10 uM GDP, […], pH 8.0). These membranes were then incubated for 30 min at 30° C. with [^35S]GTPgS (1 nM) in the presence of vehicle, test compound (one to eight concentrations), or excess 8-OH-DPAT to define maximum agonist response. All reactions are terminated by the addition of ice cold Tris buffer followed by rapid filtration using a Tom Tech® filtration device to separate bound from free [ ^35S]GTPgS. Agonists produce an increase in the amount of [^35S]GTPgS bound whereas antagonists produce no increase in binding. Bound radioactivity was counted and analyzed as above.

rats = details: delayed nonmatching to sample radial arm maze task; cited from earlier work
[2] = two-platform spatial discrimination task; cited from earlier work
[3] = post-training administration, autoshaping learning task; cited from earlier work
[4] = n=2, membranes of CHO cells expressing human 5-HT1A, read-out: HC 5-HT1A affinity Ki
[5] = n=1, cloned human 5-HT1A receptor membranes
[6] = n=1, cloned human 5-HT1A receptor membranes, read-out: [35S]GTPgS IC50

| SMILES | Ki (human 5-HT1A receptor; [4]) [nM] | melting point | [35S]GTPgS Imax [1, 5] [%] | other results |
| --- | --- | --- | --- | --- |
| COc1cccc2c1O[C@@H](CN1C3CCC1CC(O)(c1cccc(C(F)(F)F)c1)C3)CO2 (stereo partly drawn) [Example 7, 8-{[(2S)-8-Methoxy-2,3-dihydro-1,4-benzodioxin-2-yl]methyl}-3-[3-(trifluoromethyl)phenyl]-8-azabicyclo[3.2.1]octan-3-ol] | 0.33 | 104 to 107 °C | – | – |
| COc1cccc2c1O[C@@H](CN1C3CCC1CC(O)(c1ccc4ccccc4c1)C3)CO2 (stereo partly drawn) [Example 11] | – | 129 to 132 °C | 100 | Ki (human 5-HT1A receptor): 0.81 nM; IC50 [1]: 9.9 nM |
| CCOc1cccc2c1O[C@@H](CN1C3CCC1CC(O)(c1ccccc1)C3)CO2 (stereo partly drawn) [Example 2, (S)-8-(8-Ethoxy-2,3-dihydro-benzo[1,4]dioxin-2-ylmethyl)-3-phenyl-8-aza-bicyclo[3.2.1]octan-3-ol] | 3.1 | 152 to 155 °C | – | – |
| COc1cccc2c1O[C@@H](CN1C3CCC1CC(O)(c1csc4ccccc14)C3)CO2 (stereo partly drawn) [Example 9, 3-(1-Benzothien-3-yl)-8-{[(2S)-8-methoxy-2,3-dihydro-1,4-benzodioxin-2-yl]methyl}-8-azabicyclo[3.2.1]octan-3-ol] | 1.6 | 162 to 164 °C | 100 | IC50 [1, 6]: 36 nM |
| COc1cccc2c1O[C@@H](CN1C3CCC1CC(O)(c1ccccn1)C3)CO2 (stereo partly drawn) [Example 8, 8-{[(2S)-8-Methoxy-2,3-dihydro-1,4-benzodioxin-2-yl]methyl}-3-(2-pyridinyl)-8-azabicyclo[3.2.1]octan-3-ol] | 46 | 107 to 110 °C (dec.) | 100 | IC50 [1, 6]: 1480 nM |
| CCOc1cccc2c1O[C@@H](CN1C3CCC1CC(O)(c1csc4ccccc14)C3)CO2 (stereo partly drawn) [Example 3, (S)-3-Benzo[b]thiophen-3-yl-8-(8-ethoxy-2,3-dihydro-benzo[1,4]dioxin-2-ylmethyl)-8-aza-bicyclo[3.2.1]octan-3-ol] | 16.7 | 111 to 114 °C | – | – |
| CCOc1cccc2c1O[C@@H](CN1C3CCC1CC(O)(c1cccc(C(F)(F)F)c1)C3)CO2 (stereo partly drawn) [Example 5, 8-{[(2S)-8-Ethoxy-2,3-dihydro-benzo[1,4]dioxin-2-yl]methyl)-3-(3-trifluoromethylphenyl)-8-aza-bicyclo[3.2.1]octan-3-ol] | 2.9 | 86 to 90 °C | – | – |
| CCOc1cccc2c1O[C@@H](CN1C3CCC1CC(O)(c1ccc4ccccc4c1)C3)CO2 (stereo partly drawn) [Example 1, (S)-8-(8-Ethoxy-2,3-dihydro-benzo[1,4]dioxin-2-ylmethyl)-3-naphthalen-2-yl-8-aza-bicyclo[3.2.1]octan-3-ol] | 5.9 | – | – | – |
| CCOc1cccc2c1O[C@@H](CN1C3CCC1CC(O)(c1ccc4ccccc4c1)C3)CO2 (stereo partly drawn) (as salt: oxalate) [Example 1, (S)-8-(8-Ethoxy-2,3-dihydro-benzo[1,4]dioxin-2-ylmethyl)-3-naphthalen-2-yl-8-aza-bicyclo[3.2.1]octan-3-ol] | – | 126 to 129 °C | – | – |
| CCOc1cccc2c1O[C@@H](CN1C3CCC1CC(O)(c1ccccn1)C3)CO2 (stereo partly drawn) [Example 4, 8-{[(2S)-8-Ethoxy-2,3-dihydro-benzo[1,4]dioxin-2-yl]methyl)-3-pyridin-2-yl-8-aza-bicyclo[3.2.1]octan-3-ol] | 61.6 | 95 to 99 °C | – | – |
| COc1ccccc1N1CCN(CCN(C(=O)C2CCCCC2)c2ccccn2)CC1 [WAY-100635] | – | – | – | effect on cognitive impairment induced by MK801 (rats): significantly reduced the cognitive impairment; effect on impairment of spatial learning caused by intrahippocampal injection of CPP [2]: prevented the impairment of spatial learning; effect on learning deficit induced by scopolamine [3]: reversed the learning deficit |
| COc1ccccc1C1(O)CC2CCC(C1)N2C[C@H]1COc2cccc(OC)c2O1 (stereo partly drawn) [Example 6, 8-{[(2S)-8-Methoxy-2,3-dihydro-1,4-benzodioxin-2-yl]methyl}-3-(2-methoxyphenyl)-8-azabicyclo[3.2.1]octan-3-ol] | 39 | 176 to 178 °C | – | – |
| COc1cccc2c1O[C@@H](CN1C3CCC1CC(O)(c1ccccc1)C3)CO2 (stereo partly drawn) [Example 10, 8-{[(2S)-8-Methoxy-2,3-dihydro-1,4-benzodioxin-2-yl]methyl}-3-phenyl-8-azabicyclo[3.2.1]octan-3-ol] | – | 113 to 115 °C | 100 | Ki (human 5-HT1A receptor): 1.53 nM; IC50 [1]: 25 nM |
